From patent US10155004B2, “17-hydroxy-17-pentafluoroethyl-estra-4,9(10)-dien-11-aryl derivatives, method of production thereof and use thereof for the treatment of diseases” (BAYER INTELLECTUAL PROPERTY GMBH, priority 2009, dated 2018)

Columns and labels:
[1] = Metabolic stability in human liver microsomes (HLM); assay type: in vitro ADME; details: from HLM half-life, well-stirred model, phase I reactions; 1 μM, 0.5 mg/ml protein
Protocol: EXAMPLE 18 METABOLIC STABILITY OF (11β,17β)-17-HYDROXY-11[4-(METHYLSULPHONYL)PHENYL]-17-(PENTAFLUOROETHYL)ESTRA-4,9-DIEN-3-ONE AND (11β,17β)-17-HYDROXY-11-[4′-(METHYLSULPHONYL)-BIPHENYL-4-YL]-17-(PENTAFLUOROETHYL)ESTRA-4,9-DIEN-3-ONE IN HUMAN LIVER MICROSOMES (HLM)
Isolated human liver microsomes (HLM) were used for assessing the metabolic stability of compounds of general formula I.
Incubations were carried out with 2.4 ml of HLM solution (0.5 mg/ml protein content), 30 μl of the test compound (final concentration 1 μM) and 0.6 ml of the cofactor mixture (=NADPH-generating system of 3 IU glucose-6-phosphate dehydrogenase, 14.6 mg glucose-6-phosphate, 1.2 mg NADP) at 37° C. in 100 mM phosphate buffer at pH 7.4. Samples are taken at 6 time points (2-60 min), precipitated with an equal volume of methanol and the recovery of the test substances used in the supernatant is determined by LC-MS/MS analysis. The intrinsic clearance of the substance in the liver microsome preparation can be calculated from the half-life found for the breakdown of the substance. Based on this, together with various physiological characteristics according to the well-stirred model, it is then possible to predict a (metabolic) in vivo clearance with respect to phase I reactions. […]

[2] = target: T1, human progesterone receptor B (Homo sapiens, UniProt P06401); assay: Progesterone receptor-antagonistic action in stably transfected SK-N-MC cells, MTV-LUC reporter (PR-B); assay type: cell-based; details: antagonism of 0.1 nmol/l promegestone, 24 hours, LUC reporter, read-out: Progesterone receptor B (PR-B) Potency IC50
T1 construct: expressed in transfected cells; host or cells: SK-N-MC human neuroblastoma cells, stably transfected
T1 sequence (P06401 1-933): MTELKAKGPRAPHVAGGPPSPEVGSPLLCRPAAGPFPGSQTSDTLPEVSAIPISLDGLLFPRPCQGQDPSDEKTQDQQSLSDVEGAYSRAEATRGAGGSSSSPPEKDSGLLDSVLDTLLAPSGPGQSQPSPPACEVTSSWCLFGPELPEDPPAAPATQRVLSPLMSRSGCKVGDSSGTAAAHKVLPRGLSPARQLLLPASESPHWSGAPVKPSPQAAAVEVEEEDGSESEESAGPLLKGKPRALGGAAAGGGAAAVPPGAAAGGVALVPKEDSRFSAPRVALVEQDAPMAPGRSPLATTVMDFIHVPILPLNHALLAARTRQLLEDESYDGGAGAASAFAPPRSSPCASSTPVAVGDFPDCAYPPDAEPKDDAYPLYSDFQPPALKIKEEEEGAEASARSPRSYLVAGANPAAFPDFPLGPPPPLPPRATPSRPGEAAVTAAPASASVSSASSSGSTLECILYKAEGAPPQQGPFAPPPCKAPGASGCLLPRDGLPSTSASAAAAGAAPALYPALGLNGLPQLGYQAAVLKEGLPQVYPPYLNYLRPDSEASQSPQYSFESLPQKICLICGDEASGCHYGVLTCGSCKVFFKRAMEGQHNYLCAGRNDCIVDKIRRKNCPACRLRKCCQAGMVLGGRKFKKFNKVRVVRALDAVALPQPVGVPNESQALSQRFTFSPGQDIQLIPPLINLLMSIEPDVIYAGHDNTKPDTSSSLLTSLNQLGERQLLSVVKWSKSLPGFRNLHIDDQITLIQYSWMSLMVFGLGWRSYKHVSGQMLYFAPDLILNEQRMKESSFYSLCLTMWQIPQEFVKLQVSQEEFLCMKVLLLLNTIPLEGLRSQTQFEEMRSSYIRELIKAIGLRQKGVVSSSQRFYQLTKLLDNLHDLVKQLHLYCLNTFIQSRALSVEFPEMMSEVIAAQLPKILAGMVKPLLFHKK
Protocol: (§1) EXAMPLE 16 PROGESTERONE RECEPTOR-ANTAGONISTIC ACTION IN STABLE TRANSFECTANTS OF HUMAN NEUROBLASTOMA CELLS (SK-N-MC CELLS) WITH THE HUMAN PROGESTERONE A OR PROGESTERONE B RECEPTOR AND AN MTV-LUC REPORTER CONSTRUCT
(§2) SK-N-MC cells (human neuroblastoma cells), which have been stably transfected with plasmids, which express the human progesterone receptor B (pRChPR-B-neo) or the human progesterone receptor A (pRChPR-A-neo) and a reporter construct (pMMTV-LUC), were incubated for 24 hours either in the absence (negative control) or in the presence of increasing amounts of the respective test compound (0.01 nmol/l, 0.1 nmol/l 1 nmol/l, 10 nmol/l, 100 nmol/l and 1 μmol/l), in order to determine the agonistic efficacy. As positive control of reporter gene induction, the cells were treated with the synthetic gestagen promegestone (0.01 nmol/l, 0.1 nmol/l, 1 nmol/l, 10 nmol/l, 100 nmol/l and 1 μmol/l). For determination of the antagonistic activity, the cells were treated with 0.1 nmol/1 promegestone and additionally with increasing amounts of the respective test compound (0.01 nmol/l, 0.1 nmol/l, 1 nmol/l, 10 nmol/l, 100 nmol/l and 1 μmol/l). The activity of the LUC reporter gene (LUC=luciferase) was determined in the cell lysates and was measured as RLU (relative light units). All measured values are given as percentage efficacy and as EC50 or IC50 concentrations.
(§3) 11β-(4-Acetylphenyl)-20,20,21,21,21-pentafluoro-17-hydroxy-19-nor-17α-pregna-4,9-dien-3-one and 20,20,21,21,21-pentafluoro-17-hydroxy-11β-[4-(hydroxyacetyl)phenyl]-19-nor-17α-pregna-4,9-dien-3-one, very potent and therefore preferred examples from WO98/34947 and WO2008/058767, were tested as comparative compounds along with the test compound.

[3] = target: T2, human progesterone receptor A (Homo sapiens, UniProt P06401); assay: Progesterone receptor-antagonistic action in stably transfected SK-N-MC cells, MTV-LUC reporter (PR-A); assay type: cell-based; details: antagonism of 0.1 nmol/l promegestone, 24 hours, LUC reporter, read-out: Progesterone receptor A (PR-A) Potency IC50
T2 construct: expressed in transfected cells; host or cells: SK-N-MC human neuroblastoma cells, stably transfected
T2 sequence (P06401 1-769 isoform P06401-2): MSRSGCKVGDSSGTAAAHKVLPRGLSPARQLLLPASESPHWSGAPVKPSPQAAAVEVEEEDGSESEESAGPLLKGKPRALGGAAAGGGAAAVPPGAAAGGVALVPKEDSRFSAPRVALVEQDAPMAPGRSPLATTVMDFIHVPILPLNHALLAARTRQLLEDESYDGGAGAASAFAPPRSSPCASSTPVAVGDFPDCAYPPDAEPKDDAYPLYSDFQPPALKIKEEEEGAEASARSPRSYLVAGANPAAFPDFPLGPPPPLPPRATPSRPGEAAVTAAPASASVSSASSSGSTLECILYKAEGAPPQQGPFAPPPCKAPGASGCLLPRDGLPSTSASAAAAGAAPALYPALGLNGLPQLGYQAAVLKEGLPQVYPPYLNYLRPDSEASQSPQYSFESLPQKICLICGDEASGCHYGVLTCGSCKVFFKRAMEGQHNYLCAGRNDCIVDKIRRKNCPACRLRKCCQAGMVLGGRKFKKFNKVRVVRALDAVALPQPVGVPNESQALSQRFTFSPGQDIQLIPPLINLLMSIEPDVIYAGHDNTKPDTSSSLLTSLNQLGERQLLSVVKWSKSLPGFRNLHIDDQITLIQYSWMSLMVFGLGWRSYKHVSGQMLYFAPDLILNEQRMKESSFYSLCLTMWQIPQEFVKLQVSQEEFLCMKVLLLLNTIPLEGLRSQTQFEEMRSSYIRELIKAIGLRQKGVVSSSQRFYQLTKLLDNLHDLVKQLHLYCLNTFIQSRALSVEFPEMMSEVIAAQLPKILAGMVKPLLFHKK
Protocol: as §1, §2, §3

(metabolic) in vivo clearance in humans predicted [1]: < 0.17 mL/min/kg
IC50 [2]: 0.013 nM
IC50 [3]: 0.011 nM
Structure (SMILES): C[C@]12C[C@H](c3ccc(-c4ccc(S(C)(=O)=O)cc4)cc3)C3=C4CCC(=O)C=C4CC[C@H]3[C@@H]1CC[C@@]2(O)C(F)(F)C(F)(F)F [Example 10, (11β,17β)-17-hydroxy-11-[4′-(methylsulphonyl)biphenyl-4-yl]-17-(pentafluoroethy)estra-4,9-dien-3-one]
